# Experimental data as given in patent US20250171460A1, “INDUCERS OF KLF2 AND METHODS OF USE THEREOF” (Riparian Pharmaceuticals, Inc., priority 2022, published 2025).
# Test system: primary human endothelial cells expressing luciferase under the control of the KLF2 promoter
# Assay: KLF2 Induction Cell Based Bioassay (luciferase reporter)
# Settings: Homo sapiens, Endothelial cell, 24 h, KLF2 promoter luciferase, 24 hours, 11-point concentration response; read-out: Activity Range (EC50)
# From the text: In endothelial cell culture media, a stock of the highest working concentration was made at no more than 1% DMSO vehicle. The working stock was then serially diluted 1:2 to make an 11-point concentration response curve. Included in the 96-well plate were 2 reference compounds with known potencies. A DMSO column was included in the 96-well plate at the highest percent vehicle of the working stocks. The 96-well cell culture plate of primary human endothelial cells expressing luciferase under the control of the KLF2 promoter was dosed with 200 μL per well of the dilution series as well as the DMSO control column. The assay plate was incubated at 37° C. for 24 hours. The supernatant was collected at 24 hours.
# 20 μL of the supernatant was then placed in a 384-well plate with optical duplicates. The corners of the plate received 20 μL of the Gaussia Luciferase Enzyme positive control, as well as 20 μL of the 50 μM Coelenterizine substrate. The plate read is then calibrated using the control, and read using a Molecular Devices SpectraMax iD5, providing luminescence in relative light units (RLU). The plate reader injected 20 μL of the 50 μM Coelenterizine substrate immediately before taking the RLU measurement for each well.
# The sample signals were then normalized to the average signal of the DMSO column, as well as to the maximum signal of one of the reference compounds, as shown in the equations below: […]
# The EC50 of each compound is then defined as when the concentration response curve passes 0.5.
row,EC50,Compound
1,51 to 500 nM,COCCN1C(=O)c2oc3cc(C(=O)NC4CCC4)ccc3c2OCC1(C)C(=O)NCc1ccc(F)cc1OC (stereo not drawn) [Example 77]
2,501 to 5000 nM,COc1ccccc1CNC(=O)C1(C)COc2c(oc3ccccc23)C(=O)N1CC1(OC)CCC1 (stereo not drawn) [Example 10]
3,501 to 5000 nM,COCCN1C(=O)c2oc3ccccc3c2OCC1(C)C(=O)NCc1c(OC)cccc1C(=O)OC (stereo not drawn) [Example 27]
4,51 to 500 nM,"COc1cccnc1CNC(=O)[C@@]1(C)COc2c(oc3ccc(F)cc23)C(=O)N1Cc1cn(CCO)nn1 [Example 120, (R)-9-fluoro-4-((1-(2-hydroxyethyl)-1H-1,2,3-triazol-4-yl)methyl)-N-((3-methoxypyridin-2-yl)methyl)-3-methyl-5-oxo-2,3,4,5-tetrahydrobenzofuro[2,3-f][1,4]oxazepine-3-carboxamide]"
5,51 to 500 nM,COc1cccc(C#N)c1CNC(=O)C1(C)COc2c(oc3cc(C(=O)NC4(C)COC4)ccc23)C(=O)N1CC1CC1 (stereo not drawn) [Example 65]
6,501 to 5000 nM,COCCN1C(=O)c2oc3ccccc3c2OCC1(C)C(=O)NCc1cc(F)ccc1OC (stereo not drawn) [Example 38]
7,51 to 500 nM,COc1cc(F)ccc1CNC(=O)C1(C)COc2c(oc3cc(C(=O)NC4(C)COC4)ccc23)C(=O)N1[C@H]1C[C@@H](OC)C1 (stereo partly drawn) [Example 69]
8,51 to 500 nM,COc1cccc(F)c1CNC(=O)[C@@]1(C)COc2c(oc3ccc(F)cc23)C(=O)N1Cc1nnn(CCO)n1 [Example 118]
9,51 to 500 nM,COc1ccc(F)c(F)c1CNC(=O)C1(C)COc2c(oc3cc(C(=O)NC4(C)COC4)ccc23)C(=O)N1[C@H]1C[C@@H](OC)C1 (stereo partly drawn) [Example 83]
10,501 to 5000 nM,COCCN1C(=O)c2oc3ccccc3c2OC[C@]1(C)C(=O)NCc1ccccc1OC [Example 40]
11,501 to 5000 nM,COCCN1C(=O)c2oc3ccccc3c2OCC1(C)C(=O)NCc1cc(Cl)ccc1OC (stereo not drawn) [Example 23]
12,51 to 500 nM,COCCN1C(=O)c2oc3cc(C(=O)NC4(C)COC4)ccc3c2OCC1(C)C(=O)NCc1c(C#N)cccc1OC (stereo not drawn) [Example 62]
13,51 to 500 nM,COc1cccnc1CNC(=O)C1(C)COc2c(oc3cc(C(=O)NC4(C)COC4)ccc23)C(=O)N1[C@H]1C[C@@H](OC)C1 (stereo partly drawn) [Example 78]
14,51 to 500 nM,COc1cccnc1CNC(=O)[C@@]1(C)COc2c(oc3ccc(F)cc23)C(=O)N1CC(=O)N1CC(F)(F)C1 [Example 116]
15,51 to 500 nM,"[2H]C([2H])([2H])N(C(=O)CN1C(=O)c2oc3ccc(Cl)cc3c2OCC1(C)C(=O)NCc1ncccc1OCC)C([2H])([2H])[2H] (stereo not drawn) [Example 109, 4-(2-(bis(methyl-d3)amino)-2-oxoethyl)-9-chloro-N-((3-ethoxypyridin-2-yl)methyl)-3-methyl-5-oxo-2,3,4,5-tetrahydrobenzofuro[2,3-f][1,4]oxazepine-3-carboxamide]"
16,51 to 500 nM,COc1cccc(C#N)c1CNC(=O)C1(C)COc2c(oc3cc(C(=O)NC4CCC4)ccc23)C(=O)N1CC1CC1 (stereo not drawn) [Example 67]
17,501 to 5000 nM,C/C=C/CN1C(=O)c2oc3ccccc3c2OCC1(C)C(=O)NCc1ccccc1OC (stereo not drawn) [Example 9]
18,51 to 500 nM,COCCN1C(=O)c2oc3cc(C(=O)NC4(C)COC4)ccc3c2OC[C@]1(C)C(=O)NCc1c(F)cccc1OC [Example 79]
19,≤ 50 nM,COc1cccc(F)c1CNC(=O)C1(C)COc2c(oc3cc(C(=O)NC4(C)COC4)ccc23)C(=O)N1CC1CC1 (stereo not drawn) [Example 89]
20,501 to 5000 nM,C=C(C)c1ccc2c3c(oc2c1)C(=O)N(CCOC)C(C)(C(=O)NCc1ccccc1OC)CO3 (stereo not drawn) [Example 96]
21,51 to 500 nM,COCCN1C(=O)c2oc3cc(C(=O)NC4CCC4)ccc3c2OCC1(C)C(=O)NCc1cc(F)ccc1OC (stereo not drawn) [Example 75]

# Same assay, conditions: Homo sapiens, Endothelial cell, Bioactivity of stereoisomers: R isomer; read-out: Bioactivity Bucket, R
row,EC50,Compound
1,501 to 5000 nM,COCCN1C(=O)c2oc3ccccc3c2OC[C@]1(C)C(=O)NCc1ccccc1OC [Example 40]
2,51 to 500 nM,COCCN1C(=O)c2oc3cc(C(=O)NC4(C)COC4)ccc3c2OC[C@]1(C)C(=O)NCc1c(F)cccc1OC [Example 79]

# Same assay, conditions: KLF2 promoter luciferase, 24 hours, 11-point concentration response; read-out: Activity Range (EC50)
row,EC50,Compound
1,51 to 500 nM,"COc1cccc(F)c1CNC(=O)C1(C)COc2c(oc3ccc(Cl)cc23)C(=O)N1Cc1ncnn1C (stereo not drawn) [Example 108, 9-chloro-N-(2-fluoro-6-methoxybenzyl)-3-methyl-4-((1-methyl-11H-1,2,4-triazol-5-yl)methyl)-5-oxo-2,3,4,5-tetrahydrobenzofuro[2,3-f][1,4]oxazepine-3-carboxamide]"
